Experimental data taken from paper PMC7697888, “Comprehensive Set of Tertiary Complex Structures and Palmitic Acid Binding Provide Molecular Insights into Ligand Design for RXR Isoforms” (International Journal of Molecular Sciences, 2020).

Experiments:
Assay type in all cases: cell-based
Conditions in all cases: HEK293T; at 100 µM concentrations and above
RXRα = target: T1, RXRα (Homo sapiens, UniProt P19793); test: Gal4 hybrid reporter gene assay RXRα
T1 construct: pFA-CMV-hRXRα-LBD (NR2B1, UniProt entry: P19793, aa 225–462); expressed in transfected cells; host or cells: HEK293T
T1 sequence (P19793 225-462): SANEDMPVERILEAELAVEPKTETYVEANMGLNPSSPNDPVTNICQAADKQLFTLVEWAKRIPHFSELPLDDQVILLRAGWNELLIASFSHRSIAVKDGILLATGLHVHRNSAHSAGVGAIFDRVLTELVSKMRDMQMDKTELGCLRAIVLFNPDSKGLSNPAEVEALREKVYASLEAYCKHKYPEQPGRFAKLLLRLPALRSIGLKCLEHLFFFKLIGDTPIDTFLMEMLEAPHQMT
Experimental: (§1) The Gal4 hybrid reporter gene assays for RXRα, RXRβ and RXRγ were performed as described previously using the Gal4-fusion receptor plasmids pFA-CMV-hRXRα-LBD (NR2B1, UniProt entry: P19793, aa 225–462), pFA-CMV-hRXRβ-LBD (NR2B2, UniProt entry: P28702-1, aa 294–533) and pFA-CMV-hRXRγ-LBD (NR2B3, UniProt entry: P48443-1, aa 229–463), which code for the hinge region and LBD of the canonical RXR isoform. pFR-Luc (Stratagene, San Diego, CA, USA) as the reporter plasmid and pRL-SV40 (Promega, Madison, WI, USA) as the internal control were used. HEK293T cells were grown in DMEM high-glucose medium (supplemented with 10% fetal calf serum (FCS), sodium pyruvate (1 mM), penicillin (100 U/mL) and streptomycin (100 μg/mL)) at 37 °C and 5% CO2, and seeded in 96-well plates (3.0 × 10^4 cells/well) on the day before transfection. Right before transfection, medium was changed to Opti-MEM without supplements and cells were transiently transfected using the Lipofectamine LTX reagent (Invitrogen, Carlsbad, CA, USA) according to the manufacturer’s protocol with pFR-Luc (Stratagene), pRL-SV40 (Promega) and the respective pFA-CMV-hRXR-LBD clone. After 5 h of incubation, medium was changed to Opti-MEM (supplemented with penicillin (100 U/mL) and streptomycin (100 μg/mL)) additionally containing 0.1% DMSO and the respective test compounds or 0.1% DMSO alone as the untreated control. After overnight incubation (12–14 h), cells were assayed for luciferase activity using the Dual-Glo luciferase assay system (Promega) according to the manufacturer’s protocol on a Tecan Spark M10 luminometer (Tecan Deutschland GmbH, Crailsheim, Germany). Each sample was tested in at least three biologically independent repeats in duplicates. Data were normalized for transfection efficiency and cell growth by division of firefly luciferase data by Renilla luciferase data and multiplying by 1000 to obtain relative light units (RLUs). Fold activation denotes the mean RLU of test compounds at a respective concentration divided by the mean RLU of untreated control. […]

RXRβ = target: T2, RXRβ (Homo sapiens, UniProt P28702); test: Gal4 hybrid reporter gene assay RXRβ
T2 construct: pFA-CMV-hRXRβ-LBD (NR2B2, UniProt entry: P28702-1, aa 294–533); expressed in transfected cells; host or cells: HEK293T
T2 sequence (P28702 294-533): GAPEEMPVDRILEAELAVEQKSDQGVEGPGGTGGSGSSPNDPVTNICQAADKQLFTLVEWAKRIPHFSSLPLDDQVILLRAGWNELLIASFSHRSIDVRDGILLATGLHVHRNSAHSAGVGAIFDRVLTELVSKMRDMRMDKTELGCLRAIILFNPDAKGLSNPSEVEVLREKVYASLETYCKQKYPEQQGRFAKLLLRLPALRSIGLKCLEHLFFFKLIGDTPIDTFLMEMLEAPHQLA
Experimental: as §1

RXRγ = target: T3, RXRγ (Homo sapiens, UniProt P48443); test: Gal4 hybrid reporter gene assay RXRγ
T3 construct: pFA-CMV-hRXRγ-LBD (NR2B3, UniProt entry: P48443-1, aa 229–463); expressed in transfected cells; host or cells: HEK293T
T3 sequence (P48443 229-463): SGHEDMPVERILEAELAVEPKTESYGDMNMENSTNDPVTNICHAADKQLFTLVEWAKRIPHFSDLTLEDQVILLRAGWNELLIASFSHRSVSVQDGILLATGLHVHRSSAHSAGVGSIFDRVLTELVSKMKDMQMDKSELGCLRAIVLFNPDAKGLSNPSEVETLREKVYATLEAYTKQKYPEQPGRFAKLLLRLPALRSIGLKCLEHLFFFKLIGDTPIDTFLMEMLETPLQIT
Experimental: as §1

CCCCCCCCCCCCCCCC(=O)O [PA, palmitic acid]
activated: RXRα activation in Gal4 hybrid reporter gene assay (RXRα) | RXRβ activation in Gal4 hybrid reporter gene assay (RXRβ) | RXRγ activation in Gal4 hybrid reporter gene assay (RXRγ)

CCCCCCCCCCCCCCCCCC(=O)O [SA, stearic acid]
activated: RXRα activation in Gal4 hybrid reporter gene assay (RXRα) | RXRβ activation in Gal4 hybrid reporter gene assay (RXRβ) | RXRγ activation in Gal4 hybrid reporter gene assay (RXRγ)

CCCCCCCCCCCCCC(=O)O [MA, myristic acid]
activated: RXRα activation in Gal4 hybrid reporter gene assay (RXRα) | RXRβ activation in Gal4 hybrid reporter gene assay (RXRβ) | RXRγ activation in Gal4 hybrid reporter gene assay (RXRγ)
